Experimental data published in ChEMBL document CHEMBL5291721, “A preclinical secondary pharmacology resource illuminates target-adverse drug reaction associations of marketed drugs” (Nat Commun, 2023).

What was measured:
Estrogen receptor [1] = target: T1, Estrogen receptor (Homo sapiens, UniProt P03372); format: functional
T1 sequence (P03372 whole entry): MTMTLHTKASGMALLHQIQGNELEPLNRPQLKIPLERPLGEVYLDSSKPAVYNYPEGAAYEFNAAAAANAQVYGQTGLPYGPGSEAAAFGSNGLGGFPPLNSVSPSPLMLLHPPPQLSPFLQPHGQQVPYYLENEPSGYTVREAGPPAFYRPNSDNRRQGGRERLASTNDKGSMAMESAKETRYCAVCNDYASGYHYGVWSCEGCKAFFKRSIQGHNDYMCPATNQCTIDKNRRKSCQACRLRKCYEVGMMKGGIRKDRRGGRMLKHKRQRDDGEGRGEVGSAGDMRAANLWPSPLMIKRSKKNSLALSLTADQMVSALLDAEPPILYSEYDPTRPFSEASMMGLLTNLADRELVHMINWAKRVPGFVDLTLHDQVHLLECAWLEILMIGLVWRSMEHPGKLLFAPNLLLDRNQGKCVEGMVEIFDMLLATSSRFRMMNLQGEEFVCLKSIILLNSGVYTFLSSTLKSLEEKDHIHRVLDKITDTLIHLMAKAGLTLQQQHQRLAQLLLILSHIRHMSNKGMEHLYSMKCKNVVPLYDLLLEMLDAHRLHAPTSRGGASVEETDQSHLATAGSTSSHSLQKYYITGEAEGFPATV

Thromboxane A2 receptor = target: T2, Thromboxane A2 receptor (Homo sapiens, UniProt P21731); format: functional
T2 sequence (P21731 whole entry): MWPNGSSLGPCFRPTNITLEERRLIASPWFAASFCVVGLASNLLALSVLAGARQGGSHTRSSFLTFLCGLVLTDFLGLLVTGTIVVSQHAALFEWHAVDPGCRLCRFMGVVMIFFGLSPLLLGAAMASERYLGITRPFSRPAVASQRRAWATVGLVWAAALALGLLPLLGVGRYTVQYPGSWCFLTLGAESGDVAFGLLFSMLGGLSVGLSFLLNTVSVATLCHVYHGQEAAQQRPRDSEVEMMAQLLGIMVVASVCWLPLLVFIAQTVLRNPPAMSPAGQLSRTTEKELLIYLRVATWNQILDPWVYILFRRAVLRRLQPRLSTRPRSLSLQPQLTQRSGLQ

[2] = target: Receptor tyrosine-protein kinase erbB-2 (Homo sapiens, UniProt P04626); format: functional
Sequence of Receptor tyrosine-protein kinase erbB-2 (P04626 whole entry): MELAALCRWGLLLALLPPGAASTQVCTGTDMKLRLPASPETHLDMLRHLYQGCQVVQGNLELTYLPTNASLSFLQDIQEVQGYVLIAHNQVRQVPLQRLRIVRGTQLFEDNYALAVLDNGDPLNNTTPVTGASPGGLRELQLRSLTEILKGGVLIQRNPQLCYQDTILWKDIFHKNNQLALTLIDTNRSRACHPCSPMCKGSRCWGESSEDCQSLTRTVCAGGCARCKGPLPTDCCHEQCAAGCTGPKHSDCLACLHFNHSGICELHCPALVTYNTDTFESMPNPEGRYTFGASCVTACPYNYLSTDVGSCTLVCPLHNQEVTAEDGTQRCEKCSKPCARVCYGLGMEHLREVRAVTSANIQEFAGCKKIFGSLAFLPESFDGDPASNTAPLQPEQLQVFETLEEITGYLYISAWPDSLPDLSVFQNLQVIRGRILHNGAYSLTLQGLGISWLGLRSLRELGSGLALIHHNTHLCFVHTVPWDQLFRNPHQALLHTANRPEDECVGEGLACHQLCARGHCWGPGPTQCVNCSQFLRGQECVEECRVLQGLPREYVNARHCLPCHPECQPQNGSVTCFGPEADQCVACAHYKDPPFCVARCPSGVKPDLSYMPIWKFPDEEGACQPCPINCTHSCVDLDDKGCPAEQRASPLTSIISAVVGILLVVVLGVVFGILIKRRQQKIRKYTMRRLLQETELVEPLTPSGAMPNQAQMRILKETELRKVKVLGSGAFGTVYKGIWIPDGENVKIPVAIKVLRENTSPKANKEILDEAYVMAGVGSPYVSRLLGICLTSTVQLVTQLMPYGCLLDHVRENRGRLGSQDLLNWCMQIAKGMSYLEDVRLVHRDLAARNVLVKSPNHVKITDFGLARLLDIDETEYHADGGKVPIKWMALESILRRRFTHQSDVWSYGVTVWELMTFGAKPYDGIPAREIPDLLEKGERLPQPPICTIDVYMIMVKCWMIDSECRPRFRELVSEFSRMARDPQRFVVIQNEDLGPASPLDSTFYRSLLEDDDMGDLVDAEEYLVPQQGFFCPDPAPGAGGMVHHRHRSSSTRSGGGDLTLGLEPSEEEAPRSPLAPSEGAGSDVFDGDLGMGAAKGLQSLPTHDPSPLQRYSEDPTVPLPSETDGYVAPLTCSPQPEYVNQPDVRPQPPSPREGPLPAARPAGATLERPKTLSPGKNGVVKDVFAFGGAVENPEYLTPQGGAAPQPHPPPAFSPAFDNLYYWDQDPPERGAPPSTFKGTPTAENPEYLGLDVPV

Estrogen receptor [3] = target: T1, Estrogen receptor; format: functional; remark: listed apart in the source
Cannabinoid receptor 1 = Cannabinoid receptor 1 (Homo sapiens, UniProt P21554); format: functional
Sequence of Cannabinoid receptor 1 (P21554 whole entry): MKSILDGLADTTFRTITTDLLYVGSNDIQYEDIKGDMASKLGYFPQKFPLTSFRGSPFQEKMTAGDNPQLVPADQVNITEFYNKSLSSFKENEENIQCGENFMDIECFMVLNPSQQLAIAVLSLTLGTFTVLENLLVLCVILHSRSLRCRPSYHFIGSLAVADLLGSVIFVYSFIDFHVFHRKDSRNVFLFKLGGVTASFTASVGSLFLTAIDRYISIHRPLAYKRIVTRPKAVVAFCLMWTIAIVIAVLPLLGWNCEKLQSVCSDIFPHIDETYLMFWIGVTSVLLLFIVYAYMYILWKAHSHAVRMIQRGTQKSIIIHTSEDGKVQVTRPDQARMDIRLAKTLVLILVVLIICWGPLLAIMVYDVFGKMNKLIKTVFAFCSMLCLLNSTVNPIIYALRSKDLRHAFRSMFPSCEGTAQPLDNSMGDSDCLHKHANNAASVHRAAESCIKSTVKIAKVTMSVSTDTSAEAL

[4] = target: T3, Muscarinic acetylcholine receptor M5 (Homo sapiens, UniProt P08912)
T3 sequence (P08912 whole entry): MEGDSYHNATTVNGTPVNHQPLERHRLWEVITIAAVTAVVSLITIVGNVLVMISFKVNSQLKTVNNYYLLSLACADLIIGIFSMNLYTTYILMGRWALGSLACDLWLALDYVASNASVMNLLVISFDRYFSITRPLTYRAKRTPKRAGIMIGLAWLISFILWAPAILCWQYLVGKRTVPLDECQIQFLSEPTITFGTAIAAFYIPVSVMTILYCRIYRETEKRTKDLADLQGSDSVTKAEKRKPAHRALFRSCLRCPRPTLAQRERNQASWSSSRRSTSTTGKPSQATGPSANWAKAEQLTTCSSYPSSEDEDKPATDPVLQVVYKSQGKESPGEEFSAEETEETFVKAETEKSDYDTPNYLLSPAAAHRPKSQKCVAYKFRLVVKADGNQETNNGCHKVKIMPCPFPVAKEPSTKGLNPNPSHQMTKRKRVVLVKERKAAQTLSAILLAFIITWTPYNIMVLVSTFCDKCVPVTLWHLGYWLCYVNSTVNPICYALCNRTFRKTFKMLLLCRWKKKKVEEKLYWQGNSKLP

Substance-P receptor = Substance-P receptor (Homo sapiens, UniProt P25103)
Sequence of Substance-P receptor (P25103 whole entry): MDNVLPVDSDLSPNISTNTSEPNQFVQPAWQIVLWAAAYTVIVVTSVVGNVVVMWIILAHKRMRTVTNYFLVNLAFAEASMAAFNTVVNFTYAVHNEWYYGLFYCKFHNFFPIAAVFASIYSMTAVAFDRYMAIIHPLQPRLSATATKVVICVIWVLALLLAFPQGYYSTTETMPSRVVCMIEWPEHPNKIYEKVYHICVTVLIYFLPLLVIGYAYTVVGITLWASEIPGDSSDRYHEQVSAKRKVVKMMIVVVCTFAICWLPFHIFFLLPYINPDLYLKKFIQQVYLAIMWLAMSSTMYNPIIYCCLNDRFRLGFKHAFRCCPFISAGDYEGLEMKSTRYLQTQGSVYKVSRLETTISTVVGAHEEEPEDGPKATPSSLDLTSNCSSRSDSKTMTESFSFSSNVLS

[5] = target: T4, Alpha-1A adrenergic receptor (Homo sapiens, UniProt P35348)
T4 sequence (P35348 whole entry): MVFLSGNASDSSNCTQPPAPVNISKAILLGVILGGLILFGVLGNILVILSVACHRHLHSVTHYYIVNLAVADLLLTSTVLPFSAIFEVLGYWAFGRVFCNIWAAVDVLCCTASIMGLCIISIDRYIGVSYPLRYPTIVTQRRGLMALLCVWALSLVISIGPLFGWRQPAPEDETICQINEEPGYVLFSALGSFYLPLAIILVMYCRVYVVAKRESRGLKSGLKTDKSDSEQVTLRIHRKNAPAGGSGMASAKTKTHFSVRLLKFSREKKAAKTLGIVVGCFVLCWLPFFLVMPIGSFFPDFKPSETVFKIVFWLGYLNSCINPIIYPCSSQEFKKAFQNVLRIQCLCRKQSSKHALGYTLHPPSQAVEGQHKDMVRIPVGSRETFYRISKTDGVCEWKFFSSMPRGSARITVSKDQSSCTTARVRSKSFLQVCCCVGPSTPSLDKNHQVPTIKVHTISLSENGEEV

[6] = target: Voltage-dependent L-type calcium channel subunit alpha-1C (Homo sapiens, UniProt Q13936); format: functional, cell-based
Sequence of Voltage-dependent L-type calcium channel subunit alpha-1C (Q13936 whole entry): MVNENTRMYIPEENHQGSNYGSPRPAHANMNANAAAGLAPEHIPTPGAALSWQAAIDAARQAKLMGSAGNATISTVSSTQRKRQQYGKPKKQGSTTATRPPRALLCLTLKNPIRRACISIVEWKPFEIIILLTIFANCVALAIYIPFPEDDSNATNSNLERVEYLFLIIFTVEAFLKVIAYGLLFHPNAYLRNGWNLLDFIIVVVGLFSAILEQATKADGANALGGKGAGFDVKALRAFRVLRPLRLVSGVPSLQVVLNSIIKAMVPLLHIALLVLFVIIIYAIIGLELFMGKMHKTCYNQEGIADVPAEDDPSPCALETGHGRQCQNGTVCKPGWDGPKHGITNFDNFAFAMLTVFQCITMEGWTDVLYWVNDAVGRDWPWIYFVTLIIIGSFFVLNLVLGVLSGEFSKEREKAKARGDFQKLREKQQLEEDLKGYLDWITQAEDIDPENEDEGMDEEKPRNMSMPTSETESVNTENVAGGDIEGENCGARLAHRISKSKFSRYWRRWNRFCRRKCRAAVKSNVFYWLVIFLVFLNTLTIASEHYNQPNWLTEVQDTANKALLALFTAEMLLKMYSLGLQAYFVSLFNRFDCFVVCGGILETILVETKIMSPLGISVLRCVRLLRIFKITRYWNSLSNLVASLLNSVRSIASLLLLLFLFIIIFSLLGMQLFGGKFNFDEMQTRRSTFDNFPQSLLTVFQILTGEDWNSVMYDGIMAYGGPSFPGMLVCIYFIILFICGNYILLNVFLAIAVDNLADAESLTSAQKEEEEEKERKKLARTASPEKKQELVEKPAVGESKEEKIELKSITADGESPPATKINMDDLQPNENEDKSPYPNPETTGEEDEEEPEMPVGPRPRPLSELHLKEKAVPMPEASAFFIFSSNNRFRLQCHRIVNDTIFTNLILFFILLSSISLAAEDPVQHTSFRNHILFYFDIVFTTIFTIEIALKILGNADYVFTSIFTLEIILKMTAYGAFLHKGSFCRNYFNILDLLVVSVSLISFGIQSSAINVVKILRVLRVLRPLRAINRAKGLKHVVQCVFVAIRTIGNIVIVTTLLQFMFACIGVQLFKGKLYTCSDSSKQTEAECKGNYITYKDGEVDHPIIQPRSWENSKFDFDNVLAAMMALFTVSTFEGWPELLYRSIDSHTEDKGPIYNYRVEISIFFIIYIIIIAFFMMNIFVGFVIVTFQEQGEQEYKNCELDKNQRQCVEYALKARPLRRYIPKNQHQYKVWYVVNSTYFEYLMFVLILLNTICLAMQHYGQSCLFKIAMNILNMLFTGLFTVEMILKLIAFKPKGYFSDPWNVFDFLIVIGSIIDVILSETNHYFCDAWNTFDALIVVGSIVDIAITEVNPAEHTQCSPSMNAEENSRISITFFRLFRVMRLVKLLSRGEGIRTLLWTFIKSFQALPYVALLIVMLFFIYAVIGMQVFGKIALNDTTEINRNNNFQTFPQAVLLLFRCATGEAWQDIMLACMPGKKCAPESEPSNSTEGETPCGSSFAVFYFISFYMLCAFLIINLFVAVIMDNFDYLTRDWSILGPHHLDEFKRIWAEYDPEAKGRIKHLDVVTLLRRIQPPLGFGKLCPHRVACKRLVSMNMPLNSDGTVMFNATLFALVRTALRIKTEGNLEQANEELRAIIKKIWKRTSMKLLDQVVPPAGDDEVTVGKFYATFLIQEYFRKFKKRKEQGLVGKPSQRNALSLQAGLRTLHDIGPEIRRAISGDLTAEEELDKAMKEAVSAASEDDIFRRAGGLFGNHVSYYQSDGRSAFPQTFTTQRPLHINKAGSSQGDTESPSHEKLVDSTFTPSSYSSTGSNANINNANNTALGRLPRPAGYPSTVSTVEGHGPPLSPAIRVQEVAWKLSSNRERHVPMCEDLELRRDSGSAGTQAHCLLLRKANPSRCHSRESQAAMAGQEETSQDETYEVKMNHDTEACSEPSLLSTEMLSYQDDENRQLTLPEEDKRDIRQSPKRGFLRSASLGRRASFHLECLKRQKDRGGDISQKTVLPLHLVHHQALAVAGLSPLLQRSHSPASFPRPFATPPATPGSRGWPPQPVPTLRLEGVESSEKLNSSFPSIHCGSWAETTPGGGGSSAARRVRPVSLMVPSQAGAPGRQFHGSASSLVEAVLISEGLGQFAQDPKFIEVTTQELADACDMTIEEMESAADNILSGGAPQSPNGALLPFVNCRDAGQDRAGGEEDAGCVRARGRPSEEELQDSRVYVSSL
Also: assay procedure not described here.

| Structure (SMILES) | AC50 (Estrogen receptor [1]) | AC50 [2] | AC50 (Estrogen receptor [3]) | AC50 [4] | AC50 (Substance-P receptor) | also measured |
| --- | --- | --- | --- | --- | --- | --- |
| CC(=N)N1CC[C@H](SC2=C(C(=O)O)N3C(=O)[C@H]([C@@H](C)O)[C@H]3C2)C1 | 84 µM | > 300 µM | > 300 µM |  |  | AC50 (Thromboxane A2 receptor): > 300 µM |
| CC1(C)S[C@@H]2[C@H](NC(=O)[C@H](N)c3ccc(O)cc3)C(=O)N2[C@H]1C(=O)O [AMOXICILLIN] |  |  |  | > 10 µM | > 10 µM | AC50 (Cannabinoid receptor 1): > 10 µM; AC50 [5]: > 10 µM |
| CCc1oc2ccccc2c1C(=O)c1cc(Br)c(O)c(Br)c1 [BENZBROMARONE] | > 30 µM |  | 7.6 µM |  |  |  |
| C=C(C)[C@@H]1CCC(C)=C[C@H]1c1c(O)cc(CCCCC)cc1O [CANNABIDIOL] | > 30 µM | > 30 µM | > 30 µM |  |  |  |
| Clc1cccc(Cl)c1N=C1NCCN1 [CLONIDINE] |  |  |  |  | > 10 µM |  |
| COC(=O)[C@H](c1ccccc1Cl)N1CCc2sccc2C1 [CLOPIDOGREL] | > 30 µM |  | > 30 µM | > 10 µM | > 10 µM | AC50 (Cannabinoid receptor 1): > 10 µM; AC50 [5]: > 10 µM |
| CNCC[C@H](Oc1cccc2ccccc12)c1cccs1 [DULOXETINE] |  |  |  |  |  | AC50 [6]: 29 µM |
| C#Cc1cccc(Nc2ncnc3cc(OCCOC)c(OCCOC)cc23)c1 [ERLOTINIB] | > 30 µM |  | > 30 µM |  |  | AC50 (Thromboxane A2 receptor): > 30 µM |
| CC1(C)O[C@@H]2C[C@H]3[C@@H]4C[C@H](F)C5=CC(=O)C=C[C@]5(C)[C@H]4[C@@H](O)C[C@]3(C)[C@]2(C(=O)CO)O1 [FLUNISOLIDE] | > 30 µM |  | > 30 µM |  |  |  |
| C[C@H]1Oc2cc(cnc2N)-c2c(nn(C)c2C#N)CN(C)C(=O)c2ccc(F)cc21 [LORLATINIB] | > 30 µM | > 30 µM | > 30 µM |  |  | AC50 (Thromboxane A2 receptor): > 30 µM |
| Cc1cnc(NC(=O)C2=C(O)c3ccccc3S(=O)(=O)N2C)s1 [MELOXICAM] |  |  |  | > 10 µM | > 10 µM | AC50 (Cannabinoid receptor 1): > 10 µM; AC50 [5]: > 10 µM |
| CNCCC=C1c2ccccc2CCc2ccccc21 [NORTRIPTYLINE] |  |  |  | 0.262 µM |  |  |
| CN(C)c1cc(CNCC(C)(C)C)c(O)c2c1C[C@H]1C[C@H]3[C@H](N(C)C)C(O)=C(C(N)=O)C(=O)[C@@]3(O)C(O)=C1C2=O [OMADACYCLINE] |  |  |  | > 30 µM |  |  |
| COc1ccnc(C[S+]([O-])c2nc3ccc(OC(F)F)cc3[nH]2)c1OC (stereo not drawn) [PANTOPRAZOLE] |  |  |  |  | > 10 µM | AC50 [5]: > 10 µM |
| CNC[C@H](O)c1cccc(O)c1 [PHENYLEPHRINE] |  |  |  | > 10 µM | > 10 µM | AC50 (Cannabinoid receptor 1): > 10 µM |
| O=C1NC(=O)C(c2ccccc2)(c2ccccc2)N1 [PHENYTOIN] |  | > 30 µM |  |  |  | AC50 (Thromboxane A2 receptor): > 30 µM; AC50 [6]: > 50 µM |
| CC(C)C[C@H](CN)CC(=O)O [PREGABALIN] | > 30 µM | > 30 µM | > 30 µM |  |  |  |
| NC(=O)c1ncn([C@@H]2O[C@H](CO)[C@@H](O)[C@H]2O)n1 [RIBAVIRIN] |  |  |  |  |  | AC50 [6]: > 50 µM |
| O=C(Nc1c(Cl)cncc1Cl)c1ccc(OC(F)F)c(OCC2CC2)c1 [ROFLUMILAST] |  |  |  |  |  | AC50 [6]: > 50 µM |
| CCCN(CCC)CCc1cccc2c1CC(=O)N2 [ROPINIROLE] |  | > 30 µM |  |  |  | AC50 (Thromboxane A2 receptor): > 30 µM |
| CCCN(CCc1cccs1)[C@H]1CCc2c(O)cccc2C1 [ROTIGOTINE] | > 30 µM | > 30 µM | > 30 µM |  |  | AC50 (Thromboxane A2 receptor): > 30 µM |
| CC[C@H]1OC(=O)[C@H](C)[C@@H](O[C@H]2C[C@@](C)(OC)[C@@H](O)[C@H](C)O2)[C@H](C)[C@@H](O[C@@H]2O[C@H](C)C[C@H](N(C)C)[C@H]2O)[C@](C)(O)C[C@@H](C)/C(=N\OCOCCOC)[C@H](C)[C@@H](O)[C@]1(C)O [ROXITHROMYCIN] | > 30 µM | > 30 µM | > 30 µM |  |  |  |
| CC(C)N(CCCCOCC(=O)NS(C)(=O)=O)c1cnc(-c2ccccc2)c(-c2ccccc2)n1 [SELEXIPAG] |  |  |  |  |  | AC50 [6]: > 50 µM |
| CC(=O)S[C@@H]1CC2=CC(=O)CC[C@]2(C)[C@H]2CC[C@@]3(C)[C@@H](CC[C@@]34CCC(=O)O4)[C@H]12 [SPIRONOLACTONE] | > 30 µM | > 30 µM | > 30 µM |  | > 10 µM | AC50 [5]: > 10 µM |
| CCCCNc1ccc(C(=O)OCCN(C)C)cc1 [TETRACAINE] |  |  |  | > 10 µM | > 10 µM | AC50 (Cannabinoid receptor 1): 0.0006 µM; AC50 [5]: > 10 µM; AC50 [6]: > 30 µM |
| CC1(C)O[C@@H]2[C@@H](CO[C@@]3(COS(N)(=O)=O)OC(C)(C)O[C@@H]23)O1 [TOPIRAMATE] |  |  |  | > 10 µM | > 10 µM | AC50 (Cannabinoid receptor 1): > 10 µM; AC50 [5]: > 10 µM |
